According to patent publication EP1487840B1 (Pfizer Italia S.r.l., priority 2002, dated 2003):
Counter-ions that a name gives are not always drawn.

How the values were obtained:
physchem = settings: thermodynamic from solid, room temperature; for solubility thermodynamic at 24 h: Irinotecan hydrocholoride concentration; for solubility: no time given
Protocol: (§1) The pH is adjusted to the final value with NaOH 1N). An excess solid was put in glass flasks in the presence of the appropriate dissolution media and the suspensions were shaken at room temperature for 24 hours. Samples were withdrawn after 15, 30, 45, 60 min and 24 hours, filtered and analyzed by means of HPLC assay.

[1] = pH 1.2
Protocol: as §1

[2] = relative to CPT-11; cited from earlier work

With CCc1c2c(nc3ccc(OC(=O)N4CCC(N5CCCCC5)CC4)cc13)-c1cc3c(c(=O)n1C2)COC(=O)[C@]3(O)CC [Form b, (S) -4,11-Diethyl-3,4,12,14-tetrahydro-4-hydroxy-3,14-dioxo-1 H-pyrano[3',4':6,7]-indolizino[1,2-b]quinolin-9-yl[1,4'-bipiperidine]-1'-carboxylate hydrochloride] the solubility thermodynamic at 24 h (physchem; deionized water, water, a = deionized water) was 11200 µg/mL, the solubility (physchem; deionized water, water, Water solubility, in water) was about 10000 µg/mL and the solubility (physchem; lactic acid buffer of CAMPTOSAR INJECTION, pH 3.5, aqueous buffer, solubility) was 10000 µg/mL. The solubility thermodynamic at 24 h (physchem; pH 1.2 buffer, pH 1.2, simulated gastric fluid, b = pH 1.2 buffer) was 260 µg/mL and the solubility thermodynamic (physchem; pH 3.5, aqueous buffer, equilibrium solubility, pH value of about 3.5) was under 20 mg/mL.
For CCc1c2c(nc3ccc(OC(=O)N4CCC(N5CCCCC5)CC4)cc13)-c1cc3c(c(=O)n1C2)COC(=O)[C@]3(O)CC [Form c, (S)-4,11-Diethyl-3,4,12,14-tetrahydro-4-hydroxy-3,14=dioxo-1 H-pyrano[3',4':6,7]-indolizino[1,2-b]quinolin-9-yl [1,4'-bipiperidine]-1'-carboxylate (irinotecan) hydrochloride], the “more soluble with respect to Form b” value [1] was 2 orders of magnitude.
For CCc1c2c(nc3ccc(O)cc13)-c1cc3c(c(=O)n1C2)COC(=O)[C@]3(O)CC [SN-38, 7-ethyl-10-hydroxy 20 (S) camptothecin], the “more cytotoxic than CPT-11” value [2] is given as 100 fold.
